The test relates to P388 leukemia ip, CD2F1 mice, survival T/C. The test is described as follows: NCI In Vivo Anticancer Drug Screen. Data for tumor model P388 Leukemia (intraperitoneal) in CD2F1 (CDF1) mice. The conditions noted are these: endpoint: median survival time, higher = longer survival. The essentials: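 Mice carrying the transplanted tumor received test compound or vehicle. Survival was recorded in each group, and the value is the treated-group measurement divided by that of the vehicle-treated control group.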

Setting [1] is: dose: 7.5 mg/kg/injection, schedule: Q01DX005 (ip), vehicle: Klucel (hydroxypropylcellulose) (HPC).
Where [2] appears, read: dose: 15.0 mg/kg/injection, schedule: Q01DX005 (ip), vehicle: Klucel (hydroxypropylcellulose) (HPC).
Where [3] appears, read: dose: 30.0 mg/kg/injection, schedule: Q01DX005 (ip), vehicle: Klucel (hydroxypropylcellulose) (HPC).
Setting [4] is: dose: 100.0 mg/kg/injection, schedule: Q04DX002 (ip), vehicle: Klucel (hydroxypropylcellulose) (HPC).
The mark [5] stands for this setting: dose: 200.0 mg/kg/injection, schedule: Q04DX002 (ip), vehicle: Klucel (hydroxypropylcellulose) (HPC).
Where [6] appears, read: dose: 400.0 mg/kg/injection, schedule: Q04DX002 (ip), vehicle: Klucel (hydroxypropylcellulose) (HPC).
The mark [7] stands for this setting: dose: 50.0 mg/kg/injection, schedule: Q01DX009 (ip), vehicle: Klucel (hydroxypropylcellulose) (HPC).
[8] abbreviates: dose: 100.0 mg/kg/injection, schedule: Q01DX009 (ip), vehicle: Klucel (hydroxypropylcellulose) (HPC).
Setting [9] is: dose: 200.0 mg/kg/injection, schedule: Q01DX009 (ip), vehicle: Klucel (hydroxypropylcellulose) (HPC).
Setting [10] is: dose: 60.0 mg/kg/injection, schedule: Q01DX005 (ip), vehicle: Klucel (hydroxypropylcellulose) (HPC).
The mark [11] stands for this setting: dose: 120.0 mg/kg/injection, schedule: Q01DX005 (ip), vehicle: Klucel (hydroxypropylcellulose) (HPC).
Setting [12] is: dose: 240.0 mg/kg/injection, schedule: Q01DX005 (ip), vehicle: Klucel (hydroxypropylcellulose) (HPC).
Where [13] appears, read: dose: 50.0 mg/kg/injection, schedule: Q01DX009 (ip), vehicle: saline with Tween-80.
Where [14] appears, read: dose: 100.0 mg/kg/injection, schedule: Q01DX009 (ip), vehicle: saline with Tween-80.
Where [15] appears, read: dose: 200.0 mg/kg/injection, schedule: Q01DX009 (ip), vehicle: saline with Tween-80.

Values joined by “and” are separate entries in the source; they are usually repeats but may differ in a detail not shown here. Equal values may be shown once. Toxic doses and inconclusive results are not listed.

Consider `CC1C(=O)C(C)C(c2ccc(Cl)cc2)OC1c1ccccc1` (stereo not drawn), for which the T/C (dose: 50.0 mg/kg/injection, schedule: Q01DX001 (ip), vehicle: Klucel (hydroxypropylcellulose) (HPC)) is 94 % of control; the T/C (dose: 100.0 mg/kg/injection, schedule: Q01DX001 (ip), vehicle: Klucel (hydroxypropylcellulose) (HPC)) was 95 % of control; the T/C (dose: 200.0 mg/kg/injection, schedule: Q01DX001 (ip), vehicle: Klucel (hydroxypropylcellulose) (HPC)) is 105 % of control.
With `CCOC(=O)C1=C(C(C)=O)C(c2ccc([N+](=O)[O-])cc2)C(C(C)=O)=C(C(=O)OCC)N1`, the T/C runs as follows: under setting [1], 101 % of control; under setting [2], 104 % of control; under setting [3], 102 % of control.
Consider `CC1=CC(OCc2ccccc2)OC1=O` (stereo not drawn), for which the T/C by setting is: under setting [4], 101 % of control; under setting [5], 102 % of control; under setting [6], 104 % of control.
Regarding `COC(=O)C1Cc2c([nH]c3ccccc23)C(C)(C)N1` (stereo not drawn), the T/C is 99 % of control (dose: 25.0 mg/kg/injection, schedule: Q01DX009 (ip), vehicle: suspension in saline); 93 % of control (dose: 50.0 mg/kg/injection, schedule: Q01DX009 (ip), vehicle: suspension in saline); 93 % of control (dose: 100.0 mg/kg/injection, schedule: Q01DX009 (ip), vehicle: suspension in saline).
Turning to `COC(=O)C1C(CO)ON2CCC(OC)(OC)C12` (stereo not drawn), the T/C is 99 % of control (dose: 50.0 mg/kg/injection, schedule: Q01DX005 (ip), vehicle: saline); 92 % of control (dose: 100.0 mg/kg/injection, schedule: Q01DX005 (ip), vehicle: saline); 96 % of control (dose: 200.0 mg/kg/injection, schedule: Q01DX005 (ip), vehicle: saline).
For the compound `O=c1oc(-c2cc([N+](=O)[O-])ccc2Cl)nc2ccccc12`, the T/C was 100 % of control (dose: 33.0 mg/kg/injection, schedule: Q04DX003 (ip), vehicle: saline with Tween-80); 100 % of control (dose: 50.0 mg/kg/injection, schedule: Q04DX003 (ip), vehicle: saline with Tween-80); 99 % of control (dose: 75.0 mg/kg/injection, schedule: Q04DX003 (ip), vehicle: saline with Tween-80).
For `CSC(/C=N\O)=N/O`, the T/C runs as follows: under setting [7], 88 % of control; under setting [8], 106 % of control; under setting [9], 109 % of control.
Regarding `CCCCCCCCCCCCCCCC[N+](C)(C)C`, the T/C (dose: 1.56 mg/kg/injection, schedule: Q01DX009 (ip), vehicle: saline) was 99 % of control and 115 % of control and 120 % of control; the T/C (dose: 1.56 mg/kg/injection, schedule: Q04DX003 (ip), vehicle: saline with Tween-80) is 100 % of control; the T/C (dose: 2.0 mg/kg/injection, schedule: Q01DX009 (ip), vehicle: saline) was 113 % of control; the T/C (dose: 3.12 mg/kg/injection, schedule: Q01DX009 (ip), vehicle: saline) was 118 % of control and 121 % of control; the T/C (dose: 3.13 mg/kg/injection, schedule: Q01DX009 (ip), vehicle: saline) is 109 % of control; the T/C (dose: 3.13 mg/kg/injection, schedule: Q04DX003 (ip), vehicle: saline with Tween-80) is 104 % of control. Besides, the T/C (dose: 4.7 mg/kg/injection, schedule: Q01DX009 (ip), vehicle: saline) was 86 % of control; the T/C (dose: 6.25 mg/kg/injection, schedule: Q04DX003 (ip), vehicle: saline with Tween-80) was 100 % of control and 112 % of control.
Turning to `Clc1ccc2ccc3cccnc3c2n1`, the T/C is 102 % of control (dose: 7.5 mg/kg/injection, schedule: Q01DX005 (ip), vehicle: saline); 97 % of control (dose: 15.0 mg/kg/injection, schedule: Q01DX005 (ip), vehicle: saline); 93 % of control (dose: 30.0 mg/kg/injection, schedule: Q01DX005 (ip), vehicle: saline); 102 % of control (dose: 60.0 mg/kg/injection, schedule: Q01DX005 (ip), vehicle: saline); 105 % of control (dose: 120.0 mg/kg/injection, schedule: Q01DX005 (ip), vehicle: saline).
With `Cc1ccc(C)n1-n1nnnc1N`, the T/C runs as follows: (dose: 50.0 mg/kg/injection, schedule: Q01DX005 (ip), vehicle: saline with Tween-80) 101 % of control; (dose: 100.0 mg/kg/injection, schedule: Q01DX005 (ip), vehicle: saline with Tween-80) 100 % of control.
Regarding `BrC1=CC(Br)=C2N=C(N3CCCC3)N=C3N=C(C(Br)(Br)Br)N=C1N32`, the T/C is, setting by setting: under setting [1], 94 % of control; under setting [2], 92 % of control; under setting [3], 86 % of control and 90 % of control; under setting [10], 86 % of control; under setting [11], 88 % of control; under setting [12], 94 % of control.
For the compound `CCN(CC)C1=NS(=O)(=O)c2ccccc2C(=O)C1C` (stereo not drawn), the T/C by setting is: under setting [4], 102 % of control; under setting [5], 100 % of control; under setting [6], 100 % of control.
Turning to `Cc1nc(=S)c2ncn(-c3ccccc3)c2[nH]1`, the T/C is 95 % of control under setting [10] and 94 % of control under setting [11].
Consider `O=C(Nc1ccc(Cl)cc1)Nc1nnc2nc(C(C(=O)c3cccs3)c3nc4nnc(NC(=O)Nc5ccc(Cl)cc5)n4[nH]c3=O)c(=O)[nH]n12`, for which the T/C by setting is: (dose: 60.0 mg/kg/injection, schedule: Q01DX005 (ip), vehicle: saline with Tween-80) 91 % of control; (dose: 120.0 mg/kg/injection, schedule: Q01DX005 (ip), vehicle: saline with Tween-80) 94 % of control.
Turning to `CCCCCCOC(=O)c1ccc(OC)cc1`, the T/C was 104 % of control under setting [13], 106 % of control under setting [14] and 108 % of control under setting [15].
Regarding `CN1CCN(Cc2ccc(Nc3ccccc3)cc2)CC1`, the T/C under setting [10] is 105 % of control, the T/C under setting [11] is 108 % of control and the T/C under setting [12] was 98 % of control.
For the compound `O=C(Nc1cccc2c(O)c(N=Nc3ccc(S(=O)(=O)Nc4nccs4)cc3)cc(N=Nc3ccc(S(=O)(=O)Nc4nccs4)cc3)c12)C(Cl)Cl`, the T/C was 102 % of control under setting [13], 106 % of control under setting [14] and 98 % of control under setting [15].
Take `CCOC(=O)/N=[N+](\[O-])c1cccc(Cl)c1`: the T/C was 110 % of control (dose: 100.0 mg/kg/injection, schedule: Q01DX001 (ip), vehicle: saline with Tween-80) and 102 % of control (dose: 200.0 mg/kg/injection, schedule: Q01DX001 (ip), vehicle: saline with Tween-80).
Turning to `Cc1cc2c3ccccc3[nH]c(=O)n2n1`, the T/C (dose: 50.0 mg/kg/injection, schedule: Q04DX003 (ip), vehicle: saline) was 101 % of control; the T/C under setting [14] was 100 % of control; the T/C (dose: 100.0 mg/kg/injection, schedule: Q04DX003 (ip), vehicle: saline with Tween-80) was 110 % of control; the T/C (dose: 100.0 mg/kg/injection, schedule: Q04DX003 (ip), vehicle: saline) was 101 % of control; the T/C under setting [15] was 110 % of control; the T/C (dose: 200.0 mg/kg/injection, schedule: Q04DX003 (ip), vehicle: saline with Tween-80) is 120 % of control. For the same compound, the T/C reads like this: (dose: 200.0 mg/kg/injection, schedule: Q04DX003 (ip), vehicle: saline) 105 % of control; (dose: 400.0 mg/kg/injection, schedule: Q04DX003 (ip), vehicle: saline with Tween-80) 100 % of control; (dose: 400.0 mg/kg/injection, schedule: Q04DX003 (ip), vehicle: saline) 98 % of control.
On to `O=C1OC(c2ccccc2)=N/C1=C/c1c(-c2ccccc2)c(-c2ccccc2)c2n1CCC2`, for which the T/C by setting is: (dose: 50.0 mg/kg/injection, schedule: Q01DX005 (ip), vehicle: Klucel (hydroxypropylcellulose) (HPC)) 86 % of control; (dose: 100.0 mg/kg/injection, schedule: Q01DX005 (ip), vehicle: Klucel (hydroxypropylcellulose) (HPC)) 86 % of control; (dose: 200.0 mg/kg/injection, schedule: Q01DX005 (ip), vehicle: Klucel (hydroxypropylcellulose) (HPC)) 86 % of control.
Consider `COc1ccc(C2C(C#N)C(=O)NC(=O)C2C#N)cc1OC` (stereo not drawn), for which the T/C was 98 % of control under setting [7], 107 % of control under setting [8] and 111 % of control under setting [9].
As to `CN1C(=O)NC(C)(c2cccc(N(CCCl)CCCl)c2)C1=O` (stereo not drawn), the T/C is, setting by setting: under setting [7], 158 % of control; under setting [8], 177 % of control; under setting [9], 160 % of control and 205 % of control.

The values are drawn from PubChem BioAssay AID330 (DTP/NCI, 2004).
